From the CheMixHub viscosity set
Where “and” joins values, the source holds several entries; their conditions need not be identical. Identical values can stand only once.

Legend:
[1] = xn = mol fraction of the nth substance listed

CCCCCCCC(=O)OCC
100 kPa
Settings	viscosity [mPa·s]
293.15 K	1.549
303.15 K	1.295
313.15 K	1.095
323.15 K	0.949

COC(C)=O + C1CCCCC1
viscosity [mPa·s], [1], 101 kPa
Settings	298.15 K	308.15 K
x1 = 0.055	0.839	0.699
x1 = 0.1546	0.759	0.614
x1 = 0.2543	0.689	0.547
x1 = 0.3548	0.627	0.493
x1 = 0.4537	0.572	0.45
x1 = 0.4985	0.551	0.435
x1 = 0.5556	0.525	0.417
x1 = 0.6544	0.483	0.392
x1 = 0.7479	0.448	0.374
x1 = 0.8548	0.413	0.36
x1 = 0.9548	–	0.352

CC(CC(C)(C)C)CP(=O)([O-])CC(C)CC(C)(C)C.CCCC[P+](C)(CCCC)CCCC (stereo unspecified)
Settings	viscosity [mPa·s]
323.15 K, 101 kPa	283

COc1ccccc1N + CCOCCO
[1], 303.15 K, 101 kPa
Settings	viscosity [mPa·s]
x1 = 0.0875	2.2
x1 = 0.1775	2.547
x1 = 0.2701	2.908
x1 = 0.3653	3.268
x1 = 0.4633	3.603
x1 = 0.5643	3.917
x1 = 0.6683	4.18
x1 = 0.7755	4.436
x1 = 0.886	4.681

COc1ccccc1N
viscosity
Settings	298.15 K	303.15 K	308.15 K	313.15 K	318.15 K
100 kPa	5.374 mPa·s	–	–	–	–
101 kPa	–	4.924 mPa·s and 4.922 mPa·s and 4.922 mPa·s	4.512 mPa·s and 4.512 mPa·s	4.185 mPa·s and 4.185 mPa·s	3.883 mPa·s and 3.883 mPa·s

COC(C)=O + CO
[1], 298.15 K, 101.33 kPa
Settings	viscosity [mPa·s]
x1 = 0.0996	0.498
x1 = 0.2029	0.462
x1 = 0.3433	0.421
x1 = 0.4025	0.41
x1 = 0.4912	0.397
x1 = 0.6272	0.386
x1 = 0.7892	0.38
x1 = 0.8704	0.381

Cc1ccc(C)c(C)c1
102 kPa
Settings	viscosity [mPa·s]
293.15 K	0.84
303.15 K	0.731
313.15 K	0.64
323.15 K	0.567

COCCOC + CO
[1], 298.15 K, 101 kPa
Settings	viscosity [mPa·s]
x1 = 0.03801	0.5333
x1 = 0.08163	0.5252
x1 = 0.1322	0.5142
x1 = 0.1916	0.4946
x1 = 0.2623	0.479
x1 = 0.3478	0.4627
x1 = 0.4534	0.4496
x1 = 0.5871	0.4355
x1 = 0.7619	0.4209
